From patent US20230143604A1, “QW DOSING OF GIP RECEPTOR AGONIST PEPTIDE COMPOUNDS AND USES THEREOF” (TAKEDA PHARMACEUTICAL COMPANY LIMITED, priority 2020, published 2023)
Starred links: 1 amine or outer side, 2 acyl side, 3 side chain; linkers in the order of their positions; H or OH if unused. Positions of bridges follow the written chain, without caps; N, C: chain ends. Non-standard residues stand in square brackets, D forms with d. Residues, ends and D or L forms follow the SMILES beside them. Groups on a side chain read outwards from the residue. Chains are numbered I, II in the order given. *: point of attachment. C18 diacid = O=C(O)CCCCCCCCCCCCCCCCC(=O)*; C17 diacid = O=C(O)CCCCCCCCCCCCCCCC(=O)*; γGlu = O=C(O)[C@H](CCC(=O)[*:2])N[*:1]; NMeY = CN[C@@H](Cc1ccc(O)cc1)C(=O)O; AEEA = NCCOCCOCC(=O)O; Aib = CC(C)(N)C(=O)O

Experiment: Solubility in phosphate buffer pH 7.4
In short: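 Solubility at pH 7.4 determined by stepwise addition of 200 mM phosphate buffer in 100 μL increments to 3 mg peptide, mixing briefly each time, until no insoluble material remained, then measured by liquid chromatography.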

[1] = pH 7.4, aqueous buffer, pH 7.4 Phosphate Buffer - Solubility, 200 mM Phosphate buffer pH 7.4

**Q.** Which solubility [1] does the source give for CC[C@H](C)[C@H](NC(=O)[C@H](CO)NC(=O)[C@H](Cc1ccc(O)cc1)NC(=O)[C@H](CC(=O)O)NC(=O)[C@H](CO)NC(=O)[C@@H](NC(=O)[C@H](Cc1ccccc1)NC(=O)[C@@H](NC(=O)CNC(=O)[C@H](CCC(=O)O)NC(=O)C(C)(C)NC(=O)[C@H](Cc1ccc(O)cc1)NC)[C@@H](C)O)[C@@H](C)CC)C(=O)N[C@@H](C)C(=O)N[C@@H](CC(C)C)C(=O)N[C@@H](CC(=O)O)C(=O)N[C@@H](CCCNC(=N)N)C(=O)N[C@@H](CCCCNC(=O)COCCOCCNC(=O)COCCOCCNC(=O)CC[C@H](NC(=O)CCCCCCCCCCCCCCCC(=O)O)C(=O)O)C(=O)N[C@@H](C)C(=O)N[C@@H](CCC(N)=O)C(=O)NC(C)(C)C(=O)N[C@@H](CC(N)=O)C(=O)N[C@@H](Cc1ccccc1)C(=O)N[C@H](C(=O)N[C@@H](CC(N)=O)C(=O)N[C@@H](Cc1c[nH]c2ccccc12)C(=O)N[C@@H](CC(C)C)C(=O)N[C@@H](CC(C)C)C(=O)N[C@@H](C)C(=O)N[C@@H](CCC(N)=O)C(=O)N[C@@H](CCCNC(=N)N)C(=O)N1CCC[C@H]1C(=O)N[C@@H](CO)C(=O)N[C@@H](CO)C(=O)NCC(=O)N[C@@H](C)C(=O)N1CCC[C@H]1C(=O)N1CCC[C@H]1C(=O)N1CCC[C@H]1C(=O)N[C@@H](CO)C(N)=O)C(C)C [Compound 266] (H-[NMeY][Aib]EGTFISDYSIALDRK([AEEA-AEEA-γGlu-C17 diacid])AQ[Aib]NFVNWLLAQRPSSGAPPPS-NH2) here?
**A.** < 6 mg/mL

**Q.** Which solubility (pH 7.4) does the source give for CC[C@H](C)[C@H](NC(=O)[C@H](CO)NC(=O)[C@H](Cc1ccc(O)cc1)NC(=O)[C@H](CC(=O)O)NC(=O)[C@H](CO)NC(=O)[C@@H](NC(=O)[C@H](Cc1ccccc1)NC(=O)[C@@H](NC(=O)CNC(=O)[C@H](CCC(=O)O)NC(=O)C(C)(C)NC(=O)[C@H](Cc1ccc(O)cc1)NC)[C@@H](C)O)[C@@H](C)CC)C(=O)N[C@@H](C)C(=O)N[C@@H](CC(C)C)C(=O)N[C@@H](CC(=O)O)C(=O)N[C@@H](CCCNC(=N)N)C(=O)NC(C)(C)C(=O)N[C@@H](C)C(=O)N[C@@H](CCC(N)=O)C(=O)NC(C)(C)C(=O)N[C@@H](CC(N)=O)C(=O)N[C@@H](Cc1ccccc1)C(=O)N[C@H](C(=O)N[C@@H](CC(N)=O)C(=O)N[C@@H](Cc1c[nH]c2ccccc12)C(=O)N[C@@H](CC(C)C)C(=O)N[C@@H](CC(C)C)C(=O)N[C@@H](C)C(=O)N[C@@H](CCCCNC(=O)COCCOCCNC(=O)COCCOCCNC(=O)CC[C@H](NC(=O)CC[C@H](NC(=O)CCCCCCCCCCCCCCCCC(=O)O)C(=O)O)C(=O)O)C(=O)N[C@@H](CCCNC(=N)N)C(=O)NCC(=O)O)C(C)C [Compound 55] (H-[NMeY][Aib]EGTFISDYSIALDR[Aib]AQ[Aib]NFVNWLLAK([AEEA-AEEA-γGlu-γGlu-C18 diacid])RG-OH) here?
**A.** ≥ 15 mg/mL

**Q.** What about the solubility (pH 7.4, aqueous buffer) of the same molecule?
**A.** ≥ 30 mg/mL

**Q.** For CC[C@H](C)[C@H](NC(=O)[C@H](Cc1ccccc1)NC(=O)[C@@H](NC(=O)CNC(=O)[C@H](CCC(=O)O)NC(=O)C(C)(C)NC(=O)[C@@H](N)Cc1ccc(O)cc1)[C@@H](C)O)C(=O)N[C@@H](CO)C(=O)N[C@@H](CC(=O)O)C(=O)N[C@@H](Cc1ccc(O)cc1)C(=O)N[C@@H](CO)C(=O)N[C@H](C(=O)NC(C)(C)C(=O)N[C@@H](CC(C)C)C(=O)N[C@@H](CC(=O)O)C(=O)N[C@@H](CCCCN)C(=O)N[C@@H](C)C(=O)N[C@@H](C)C(=O)N[C@@H](CCC(N)=O)C(=O)N[C@@H](CCC(N)=O)C(=O)N[C@@H](CCCCNC(=O)COCCOCCNC(=O)COCCOCCNC(=O)CC[C@H](NC(=O)CC[C@H](NC(=O)CCCCCCCCCCCCCCCCC(=O)O)C(=O)O)C(=O)O)C(=O)N[C@@H](Cc1ccccc1)C(=O)N[C@H](C(=O)N[C@@H](CCC(=O)O)C(=O)N[C@@H](Cc1c[nH]c2ccccc12)C(=O)N[C@@H](CC(C)C)C(=O)N[C@@H](CC(C)C)C(=O)N[C@@H](C)C(=O)N[C@@H](CCC(N)=O)C(=O)N[C@@H](CCCNC(=N)N)C(=O)NCC(=O)O)C(C)C)[C@@H](C)CC [Compound 167] (H-Y[Aib]EGTFISDYSI[Aib]LDKAAQQK([AEEA-AEEA-γGlu-γGlu-C18 diacid])FVEWLLAQRG-OH), which solubility (pH 7.4) is on record?
**A.** ≥ 15 mg/mL

**Q.** And the solubility (pH 7.4, aqueous buffer)?
**A.** ≥ 30 mg/mL

**Q.** With CC[C@H](C)[C@H](NC(=O)[C@H](CO)NC(=O)[C@H](Cc1ccc(O)cc1)NC(=O)[C@H](CC(=O)O)NC(=O)[C@H](CO)NC(=O)[C@@H](NC(=O)[C@H](Cc1ccccc1)NC(=O)[C@@H](NC(=O)CNC(=O)[C@H](CCC(=O)O)NC(=O)C(C)(C)NC(=O)[C@H](Cc1ccc(O)cc1)NC)[C@@H](C)O)[C@@H](C)CC)C(=O)N[C@@H](C)C(=O)N[C@@H](CC(C)C)C(=O)N[C@@H](CC(=O)O)C(=O)N[C@@H](CCCNC(=N)N)C(=O)NC(C)(C)C(=O)N[C@@H](CCCCNC(=O)CNC(=O)CNC(=O)[C@@H]1CCCN1C(=O)[C@H](C)NC(=O)[C@@H]1CCCN1C(=O)[C@H](C)NC(=O)[C@@H]1CCCN1C(=O)CC[C@H](NC(=O)CCCCCCCCCCCCCCCCC(=O)O)C(=O)O)C(=O)N[C@@H](CCC(N)=O)C(=O)NC(C)(C)C(=O)N[C@@H](CC(=O)O)C(=O)N[C@@H](Cc1ccccc1)C(=O)N[C@H](C(=O)N[C@@H](CC(N)=O)C(=O)N[C@@H](Cc1c[nH]c2ccccc12)C(=O)N[C@@H](CC(C)C)C(=O)N[C@@H](CC(C)C)C(=O)N[C@@H](C)C(=O)N[C@@H](CCC(N)=O)C(=O)N[C@@H](CO)C(=O)N1CCC[C@H]1C(=O)NCC(=O)O)C(C)C [Compound 136] (I: H-[NMeY][Aib]EGTFISDYSIALDR[Aib]KQ[Aib]DFVNWLLAQSPG-OH / II: {C18 diacid-γGlu}-PAPAPGG; amide I:18-II:C) as the molecule, how does the solubility (pH 7.4) read?
**A.** ≥ 15 mg/mL

**Q.** What about the solubility (pH 7.4, aqueous buffer) of the same molecule?
**A.** ≥ 30 mg/mL

**Q.** Which solubility [1] does the source give for CC[C@H](C)[C@H](NC(=O)[C@H](Cc1ccccc1)NC(=O)[C@@H](NC(=O)CNC(=O)[C@H](CCC(=O)O)NC(=O)C(C)(C)NC(=O)[C@H](Cc1ccc(O)cc1)NC)[C@@H](C)O)C(=O)N[C@@H](CO)C(=O)N[C@@H](CC(=O)O)C(=O)N[C@@H](Cc1ccc(O)cc1)C(=O)N[C@@H](CO)C(=O)N[C@H](C(=O)NC(C)(C)C(=O)N[C@@H](CC(C)C)C(=O)N[C@@H](CC(=O)O)C(=O)N[C@@H](CCCNC(=N)N)C(=O)NC(C)(C)C(=O)N[C@@H](C)C(=O)N[C@@H](CCC(N)=O)C(=O)NC(C)(C)C(=O)N[C@@H](CCCCNC(=O)COCCOCCNC(=O)COCCOCCNC(=O)CC[C@H](NC(=O)CC[C@H](NC(=O)CCCCCCCCCCCCCCCC(=O)O)C(=O)O)C(=O)O)C(=O)N[C@@H](Cc1ccccc1)C(=O)N[C@H](C(=O)N[C@@H](CC(N)=O)C(=O)N[C@@H](Cc1c[nH]c2ccccc12)C(=O)N[C@@H](CC(C)C)C(=O)N[C@@H](CC(C)C)C(=O)N[C@@H](C)C(=O)N[C@@H](CCC(N)=O)C(=O)N[C@@H](CO)C(=O)N1CCC[C@H]1C(=O)N[C@@H](CO)C(=O)N[C@@H](CO)C(=O)NCC(=O)N[C@@H](C)C(=O)N1CCC[C@H]1C(=O)N1CCC[C@H]1C(=O)N1CCC[C@H]1C(=O)N[C@@H](CO)C(N)=O)C(C)C)[C@@H](C)CC [Compound 94] (H-[NMeY][Aib]EGTFISDYSI[Aib]LDR[Aib]AQ[Aib]K([AEEA-AEEA-γGlu-γGlu-C17 diacid])FVNWLLAQSPSSGAPPPS-NH2) here?
**A.** ≥ 60 mg/mL

**Q.** And the solubility (pH 7.4, solubility in phosphate buffer at pH 7.4, 200 mM phosphate buffer pH 7.4)?
**A.** ≥ 15 mg/mL

**Q.** For CC[C@H](C)[C@H](NC(=O)[C@H](Cc1ccccc1)NC(=O)[C@@H](NC(=O)CNC(=O)[C@H](CCC(=O)O)NC(=O)C(C)(C)NC(=O)[C@@H](N)Cc1ccc(O)cc1)[C@@H](C)O)C(=O)N[C@@H](CO)C(=O)N[C@@H](CC(=O)O)C(=O)N[C@@H](Cc1ccc(O)cc1)C(=O)N[C@@H](CO)C(=O)N[C@H](C(=O)NC(C)(C)C(=O)N[C@@H](CCCCNC(=O)CNC(=O)CNC(=O)CNC(=O)CNC(=O)CNC(=O)CCCCCCCCCCCCCCCCC(=O)O)C(=O)N[C@@H](CC(=O)O)C(=O)N[C@@H](CCCNC(=N)N)C(=O)NC(C)(C)C(=O)N[C@@H](C)C(=O)N[C@@H](CCC(N)=O)C(=O)N[C@@H](CCCNC(=N)N)C(=O)N[C@@H](CC(=O)O)C(=O)N[C@@H](Cc1ccccc1)C(=O)N[C@H](C(=O)N[C@@H](CCC(=O)O)C(=O)N[C@@H](Cc1c[nH]c2ccccc12)C(=O)N[C@@H](CC(C)C)C(=O)N[C@@H](CC(C)C)C(=O)N[C@@H](C)C(=O)N[C@@H](CCC(N)=O)C(=O)N[C@@H](CCCNC(=N)N)C(=O)NCC(=O)O)C(C)C)[C@@H](C)CC [Compound 147], which solubility (pH 7.4) is on record?
**A.** ≥ 15 mg/mL

**Q.** Which solubility (pH 7.4) does the source give for CC[C@H](C)[C@H](NC(=O)[C@H](Cc1ccccc1)NC(=O)[C@@H](NC(=O)CNC(=O)[C@H](CCC(=O)O)NC(=O)C(C)(C)NC(=O)[C@H](Cc1ccc(O)cc1)NC)[C@@H](C)O)C(=O)N[C@@H](CO)C(=O)N[C@@H](CC(=O)O)C(=O)N[C@@H](Cc1ccc(O)cc1)C(=O)N[C@@H](CO)C(=O)N[C@H](C(=O)NC(C)(C)C(=O)N[C@@H](CC(C)C)C(=O)N[C@@H](CC(=O)O)C(=O)N[C@@H](CCCNC(=N)N)C(=O)NC(C)(C)C(=O)N[C@@H](CCCCNC(=O)COCCOCCNC(=O)COCCOCCNC(=O)CC[C@H](NC(=O)CC[C@H](NC(=O)CCCCCCCCCCCCCCCCC(=O)O)C(=O)O)C(=O)O)C(=O)N[C@@H](CCC(N)=O)C(=O)NC(C)(C)C(=O)N[C@@H](CC(=O)O)C(=O)N[C@@H](Cc1ccccc1)C(=O)N[C@H](C(=O)N[C@@H](CC(N)=O)C(=O)N[C@@H](Cc1c[nH]c2ccccc12)C(=O)N[C@@H](CC(C)C)C(=O)N[C@@H](CC(C)C)C(=O)N[C@@H](C)C(=O)N[C@@H](CCC(N)=O)C(=O)N[C@@H](CCCNC(=N)N)C(=O)NCC(=O)O)C(C)C)[C@@H](C)CC [Compound 73] (H-[NMeY][Aib]EGTFISDYSI[Aib]LDR[Aib]K([AEEA-AEEA-γGlu-γGlu-C18 diacid])Q[Aib]DFVNWLLAQRG-OH) here?
**A.** ≥ 15 mg/mL

**Q.** And the solubility (pH 7.4, aqueous buffer)?
**A.** ≥ 30 mg/mL
